The results in this text go back to ChEMBL document CHEMBL4325871 (Eur J Med Chem, 2019).

Assay [1] deals with Aurora kinase B (Homo sapiens) (UniProt Q96GD4). The assay can be described thus: Inhibition of human Aurora B assessed as residual activity at 1 uM using [H-LRRASLG] as substrate by [gamma-33P]-ATP assay relative to control.
For assay [2], the target named is Protein-tyrosine kinase 6 (Homo sapiens) (UniProt Q13882). Description: Inhibition of human BRK assessed as residual activity at 1 uM using poly[Glu:Tyr](4:1) as substrate by [gamma-33P]-ATP assay relative to control.
The target in assay [3] is Serine/threonine-protein kinase Sgk1 (Homo sapiens) (UniProt O00141). Description: Inhibition of human SGK1 assessed as residual activity at 1 uM using KGSGSGRPRTSSFAEG as substrate by [gamma-33P]-ATP assay relative to control.
Assay [4] concerns the target Serine/threonine-protein kinase 17A (Homo sapiens) (UniProt Q9UEE5). Description: Inhibition of human DRAK1 assessed as residual activity at 1 uM using KKLNRTLSFAEPG as substrate by [gamma-33P]-ATP assay relative to control.
The target in assay [5] is Protein kinase C epsilon type (Homo sapiens) (UniProt Q02156). Description: Inhibition of human PKCepsilon assessed as residual activity at 1 uM using ERMRPRKRQGSVRRRV as substrate by [gamma-33P]-ATP assay relative to control.
Protein kinase C epsilon type (Homo sapiens), sequence (Q02156 whole entry): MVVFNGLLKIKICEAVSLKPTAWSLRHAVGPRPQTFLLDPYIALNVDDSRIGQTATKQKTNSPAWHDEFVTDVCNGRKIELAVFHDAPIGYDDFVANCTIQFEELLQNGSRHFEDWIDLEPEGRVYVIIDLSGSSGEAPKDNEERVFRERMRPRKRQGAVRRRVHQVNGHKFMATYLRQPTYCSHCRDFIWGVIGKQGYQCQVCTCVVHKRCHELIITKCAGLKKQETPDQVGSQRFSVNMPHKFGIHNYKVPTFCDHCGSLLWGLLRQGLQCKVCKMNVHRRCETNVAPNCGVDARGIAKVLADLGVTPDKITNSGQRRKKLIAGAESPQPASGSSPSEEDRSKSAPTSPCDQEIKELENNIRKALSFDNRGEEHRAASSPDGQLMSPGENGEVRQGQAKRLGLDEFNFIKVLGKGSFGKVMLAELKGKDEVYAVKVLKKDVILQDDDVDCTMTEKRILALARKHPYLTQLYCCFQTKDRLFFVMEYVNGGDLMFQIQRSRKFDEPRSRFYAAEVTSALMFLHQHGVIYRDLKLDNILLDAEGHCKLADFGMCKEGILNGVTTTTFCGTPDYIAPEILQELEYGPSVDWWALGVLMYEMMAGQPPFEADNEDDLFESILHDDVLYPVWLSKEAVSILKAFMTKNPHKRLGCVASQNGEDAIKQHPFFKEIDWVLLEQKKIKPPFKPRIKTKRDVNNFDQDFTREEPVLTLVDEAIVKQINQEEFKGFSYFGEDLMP
The target in assay [6] is Rhodopsin kinase GRK1 (Homo sapiens) (UniProt Q15835). The assay can be described thus: Inhibition of human GRK1 assessed as residual activity at 1 uM using casein as substrate by [gamma-33P]-ATP assay relative to control.
Rhodopsin kinase GRK1 (Homo sapiens), sequence (Q15835 whole entry): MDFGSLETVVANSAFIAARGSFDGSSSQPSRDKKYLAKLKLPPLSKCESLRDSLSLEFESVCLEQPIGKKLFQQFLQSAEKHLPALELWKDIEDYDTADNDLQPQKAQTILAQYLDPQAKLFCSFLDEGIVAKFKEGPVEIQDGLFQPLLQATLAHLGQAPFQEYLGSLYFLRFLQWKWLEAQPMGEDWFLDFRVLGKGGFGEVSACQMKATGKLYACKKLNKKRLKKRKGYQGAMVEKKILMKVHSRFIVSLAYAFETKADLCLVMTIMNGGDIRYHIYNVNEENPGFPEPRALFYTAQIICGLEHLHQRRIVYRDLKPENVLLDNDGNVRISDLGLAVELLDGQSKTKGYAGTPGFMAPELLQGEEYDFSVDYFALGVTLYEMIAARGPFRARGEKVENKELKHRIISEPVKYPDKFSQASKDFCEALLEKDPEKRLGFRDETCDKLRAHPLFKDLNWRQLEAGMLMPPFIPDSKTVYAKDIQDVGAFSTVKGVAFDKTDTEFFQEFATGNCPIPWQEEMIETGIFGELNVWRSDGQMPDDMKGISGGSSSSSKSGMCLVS
The target in assay [7] is Calcium/calmodulin-dependent protein kinase kinase 1 (Homo sapiens) (UniProt Q8N5S9). The assay can be described thus: Inhibition of human CAMKK1 assessed as residual activity at 1 uM using MBP as substrate by [gamma-33P]-ATP assay relative to control.
Calcium/calmodulin-dependent protein kinase kinase 1 (Homo sapiens), sequence (Q8N5S9 whole entry, looked up): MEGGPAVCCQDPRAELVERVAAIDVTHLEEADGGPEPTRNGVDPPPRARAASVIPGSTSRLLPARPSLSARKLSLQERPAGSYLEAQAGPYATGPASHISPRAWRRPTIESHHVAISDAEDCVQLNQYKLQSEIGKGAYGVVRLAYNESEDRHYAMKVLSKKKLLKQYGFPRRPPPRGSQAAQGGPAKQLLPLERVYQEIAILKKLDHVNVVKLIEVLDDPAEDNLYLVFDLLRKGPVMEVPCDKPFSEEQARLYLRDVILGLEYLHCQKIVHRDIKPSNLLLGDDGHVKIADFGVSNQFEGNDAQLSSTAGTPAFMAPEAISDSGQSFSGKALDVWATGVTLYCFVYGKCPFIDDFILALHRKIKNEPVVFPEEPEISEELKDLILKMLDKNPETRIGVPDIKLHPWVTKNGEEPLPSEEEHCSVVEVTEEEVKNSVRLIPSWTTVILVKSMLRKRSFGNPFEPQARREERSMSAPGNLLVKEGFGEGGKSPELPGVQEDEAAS
For assay [8], the target named is Muscle, skeletal receptor tyrosine-protein kinase (Homo sapiens) (UniProt O15146). Description: Inhibition of human MUSK assessed as residual activity at 1 uM using MBP as substrate by [gamma-33P]-ATP assay relative to control.
Assay [9] addresses Casein kinase I isoform epsilon (Homo sapiens) (UniProt P49674). Description: Inhibition of human CK1E assessed as residual activity at 1 uM using KRRRAL[pS]VASLPGL as substrate by [gamma-33P]-ATP assay relative to control.
Assay [10] concerns the target CDK2/Cyclin O (Homo sapiens) (UniProt P24941+P22674). The assay can be described thus: Inhibition of human CDK2/cyclin-O assessed as residual activity at 1 uM using histone H1 as substrate by [gamma-33P]-ATP assay relative to control. It counts as protein-complex assay.
The target in assay [11] is Tyrosine-protein kinase ABL2 (Homo sapiens) (UniProt P42684). The assay can be described thus: Inhibition of human ABL2 assessed as residual activity at 1 uM using EAIYAAPFAKKK as substrate by [gamma-33P]-ATP assay relative to control.
Assay [12] deals with Myosin light chain kinase 2, skeletal/cardiac muscle (Homo sapiens) (UniProt Q9H1R3). Description: Inhibition of human MLCK2 assessed as residual activity at 1 uM using KKLNRTLSFAEPG as substrate by [gamma-33P]-ATP assay relative to control.
The target in assay [13] is Dual specificity mitogen-activated protein kinase kinase 1 (Homo sapiens) (UniProt Q02750). The assay can be described thus: Inhibition of human MEK1 assessed as residual activity at 1 uM using ERK2 as substrate by [gamma-33P]-ATP assay relative to control.
Dual specificity mitogen-activated protein kinase kinase 1 (Homo sapiens), sequence (Q02750 whole entry): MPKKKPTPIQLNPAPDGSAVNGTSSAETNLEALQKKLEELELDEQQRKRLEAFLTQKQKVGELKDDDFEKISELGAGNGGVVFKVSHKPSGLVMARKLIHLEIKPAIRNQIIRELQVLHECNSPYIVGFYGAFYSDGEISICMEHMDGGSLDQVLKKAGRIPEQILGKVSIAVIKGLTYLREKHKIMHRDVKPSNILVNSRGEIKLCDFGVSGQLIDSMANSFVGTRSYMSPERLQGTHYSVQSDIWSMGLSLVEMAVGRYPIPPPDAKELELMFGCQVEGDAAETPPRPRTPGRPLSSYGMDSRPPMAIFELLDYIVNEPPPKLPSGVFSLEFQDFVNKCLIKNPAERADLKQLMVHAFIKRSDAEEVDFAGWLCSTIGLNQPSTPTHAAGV
The target in assay [14] is T1, Serine/threonine-protein kinase Chk1 (Homo sapiens) (UniProt O14757).
T1 sequence (whole entry): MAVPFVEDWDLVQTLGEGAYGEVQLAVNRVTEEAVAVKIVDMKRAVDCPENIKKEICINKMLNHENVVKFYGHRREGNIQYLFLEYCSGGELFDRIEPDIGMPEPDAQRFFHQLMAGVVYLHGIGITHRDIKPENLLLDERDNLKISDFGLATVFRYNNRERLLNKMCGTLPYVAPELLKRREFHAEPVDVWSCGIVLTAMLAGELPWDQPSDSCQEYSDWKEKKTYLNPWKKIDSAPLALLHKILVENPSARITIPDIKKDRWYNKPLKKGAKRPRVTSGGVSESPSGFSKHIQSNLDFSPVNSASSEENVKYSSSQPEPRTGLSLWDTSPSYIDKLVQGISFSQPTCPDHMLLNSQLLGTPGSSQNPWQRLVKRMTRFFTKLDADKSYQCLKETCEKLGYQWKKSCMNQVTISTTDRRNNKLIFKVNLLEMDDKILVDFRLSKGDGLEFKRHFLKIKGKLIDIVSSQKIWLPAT
The assay can be described thus: Inhibition of hydroxyurea-induced CHK1 phosphorylation at S317 residue in human HCT116 cells at 20 uM treated for 8 hrs starting from 24 hrs post hydroxyurea addition by Western blot analysis. It counts as cell-based. (A western blot detects proteins with antibodies after separation by electrophoresis.)

Assay [15] concerns the target T1, Serine/threonine-protein kinase Chk1 (Homo sapiens). The assay can be described thus: Inhibition of CHK1 phosphorylation at S317 residue in human HCT116 cells at 20 uM after 8 hrs by Western blot analysis. In kind it is cell-based.
Assay [16] addresses Tyrosine-protein kinase TXK (Homo sapiens) (UniProt P42681). Description: Inhibition of human TXK assessed as residual activity at 1 uM using EAIYAAPFAKKK as substrate by [gamma-33P]-ATP assay relative to control.
Assay [17] has as its target T1, Serine/threonine-protein kinase Chk1 (Homo sapiens). The assay can be described thus: Inhibition of CHK1 phosphorylation at S317 residue in human FOLFOX-resistant HT-29 cells after 24 hrs by Western blot analysis.
Assay [18] deals with Casein kinase II subunit alpha (Homo sapiens, UniProt P68400). The assay can be described thus: Inhibition of human CK2A assessed as residual activity at 1 uM using RRRDDDSDDD as substrate by [gamma-33P]-ATP assay relative to control.
Casein kinase II subunit alpha, sequence (P68400 whole entry, looked up): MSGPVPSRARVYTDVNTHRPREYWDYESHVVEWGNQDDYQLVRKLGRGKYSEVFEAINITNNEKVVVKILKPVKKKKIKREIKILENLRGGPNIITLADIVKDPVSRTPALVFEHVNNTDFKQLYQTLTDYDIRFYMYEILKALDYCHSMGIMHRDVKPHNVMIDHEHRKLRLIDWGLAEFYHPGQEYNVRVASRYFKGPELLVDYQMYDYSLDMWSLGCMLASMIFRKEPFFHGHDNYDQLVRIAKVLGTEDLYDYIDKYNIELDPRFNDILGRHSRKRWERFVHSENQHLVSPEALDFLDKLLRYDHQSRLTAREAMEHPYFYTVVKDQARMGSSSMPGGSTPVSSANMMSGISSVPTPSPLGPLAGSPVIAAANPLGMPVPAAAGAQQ
Assay [19] has as its target Serine/threonine-protein kinase WNK3 (Homo sapiens, UniProt Q9BYP7). Description: Inhibition of human WNK3 assessed as residual activity at 1 uM using MBP as substrate by [gamma-33P]-ATP assay relative to control.
Assay [20] has as its target Misshapen-like kinase 1 (Homo sapiens) (UniProt Q8N4C8). The assay can be described thus: Inhibition of human MINK1 assessed as residual activity at 1 uM using MBP as substrate by [gamma-33P]-ATP assay relative to control.
Assay [21] has as its target Ephrin type-A receptor 6 (Homo sapiens) (UniProt Q9UF33). The assay can be described thus: Inhibition of human EPHA6 assessed as residual activity at 1 uM using poly[Glu:Tyr] (4:1) as substrate by [gamma-33P]-ATP assay relative to control.
In assay [22] the target is Maternal embryonic leucine zipper kinase (Homo sapiens) (UniProt Q14680). The assay can be described thus: Inhibition of human MELK assessed as residual activity at 1 uM using KKLNRTLSFAEPG as substrate by [gamma-33P]-ATP assay relative to control.
In assay [23] the target is Serine/threonine-protein kinase ICK (Homo sapiens) (UniProt Q9UPZ9). Description: Inhibition of human LCK2 assessed as residual activity at 1 uM using MBP as substrate by [gamma-33P]-ATP assay relative to control.
For assay [24], the target named is Proto-oncogene tyrosine-protein kinase receptor Ret (Homo sapiens) (UniProt P07949). The assay can be described thus: Inhibition of human RET assessed as residual activity at 1 uM using KKKVSRSGLYRSPSMPENLNRPR as substrate by [gamma-33P]-ATP assay relative to control.

Activity calls are given as the source filed them. The rule behind the calls is not given here.

Serine/threonine-protein kinase WNK3, sequence (Q9BYP7 whole entry): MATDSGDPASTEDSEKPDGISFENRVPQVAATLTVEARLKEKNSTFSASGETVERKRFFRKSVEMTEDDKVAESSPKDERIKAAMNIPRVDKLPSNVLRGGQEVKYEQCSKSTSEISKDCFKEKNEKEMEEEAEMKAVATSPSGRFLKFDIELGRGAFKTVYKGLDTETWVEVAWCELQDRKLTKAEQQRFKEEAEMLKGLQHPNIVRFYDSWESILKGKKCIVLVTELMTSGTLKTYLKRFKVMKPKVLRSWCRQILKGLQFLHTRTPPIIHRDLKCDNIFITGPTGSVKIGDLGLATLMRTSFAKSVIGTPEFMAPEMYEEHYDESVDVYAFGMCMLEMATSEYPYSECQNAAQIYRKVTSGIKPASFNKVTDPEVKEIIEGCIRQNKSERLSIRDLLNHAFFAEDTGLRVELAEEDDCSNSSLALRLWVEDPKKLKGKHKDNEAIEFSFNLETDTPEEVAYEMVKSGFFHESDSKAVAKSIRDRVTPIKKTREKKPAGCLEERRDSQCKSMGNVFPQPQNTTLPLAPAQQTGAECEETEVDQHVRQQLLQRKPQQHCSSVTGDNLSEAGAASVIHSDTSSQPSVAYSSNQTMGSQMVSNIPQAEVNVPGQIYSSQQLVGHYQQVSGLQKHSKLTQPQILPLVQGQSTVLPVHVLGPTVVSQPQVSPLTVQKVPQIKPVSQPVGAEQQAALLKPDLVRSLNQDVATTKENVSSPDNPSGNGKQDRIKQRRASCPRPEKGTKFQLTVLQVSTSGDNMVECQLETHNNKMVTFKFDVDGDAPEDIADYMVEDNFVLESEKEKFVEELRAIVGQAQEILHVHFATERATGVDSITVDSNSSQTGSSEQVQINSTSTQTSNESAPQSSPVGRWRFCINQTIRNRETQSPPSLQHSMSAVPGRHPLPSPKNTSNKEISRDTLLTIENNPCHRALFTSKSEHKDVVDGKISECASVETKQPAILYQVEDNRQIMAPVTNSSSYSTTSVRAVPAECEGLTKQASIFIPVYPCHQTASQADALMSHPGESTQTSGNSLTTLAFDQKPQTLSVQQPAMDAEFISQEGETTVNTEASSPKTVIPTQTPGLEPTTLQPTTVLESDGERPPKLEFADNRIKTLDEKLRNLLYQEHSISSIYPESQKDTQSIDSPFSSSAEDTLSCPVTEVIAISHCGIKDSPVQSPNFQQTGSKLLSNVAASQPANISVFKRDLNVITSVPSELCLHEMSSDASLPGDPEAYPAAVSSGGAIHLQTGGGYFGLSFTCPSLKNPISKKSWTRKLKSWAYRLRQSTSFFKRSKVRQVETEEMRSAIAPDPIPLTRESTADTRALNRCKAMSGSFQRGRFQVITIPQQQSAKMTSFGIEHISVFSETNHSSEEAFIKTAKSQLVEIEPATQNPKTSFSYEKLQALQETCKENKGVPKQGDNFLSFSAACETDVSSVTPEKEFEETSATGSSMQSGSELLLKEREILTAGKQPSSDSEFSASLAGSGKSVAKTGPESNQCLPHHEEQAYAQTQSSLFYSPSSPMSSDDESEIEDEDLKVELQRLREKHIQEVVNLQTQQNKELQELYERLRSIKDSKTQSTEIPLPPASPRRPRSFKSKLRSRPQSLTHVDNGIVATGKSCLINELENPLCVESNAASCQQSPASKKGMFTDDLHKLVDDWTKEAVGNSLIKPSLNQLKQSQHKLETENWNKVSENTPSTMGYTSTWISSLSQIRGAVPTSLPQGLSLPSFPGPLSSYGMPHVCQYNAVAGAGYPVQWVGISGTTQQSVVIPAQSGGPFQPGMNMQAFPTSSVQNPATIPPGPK
Serine/threonine-protein kinase 17A (Homo sapiens), sequence (Q9UEE5 whole entry): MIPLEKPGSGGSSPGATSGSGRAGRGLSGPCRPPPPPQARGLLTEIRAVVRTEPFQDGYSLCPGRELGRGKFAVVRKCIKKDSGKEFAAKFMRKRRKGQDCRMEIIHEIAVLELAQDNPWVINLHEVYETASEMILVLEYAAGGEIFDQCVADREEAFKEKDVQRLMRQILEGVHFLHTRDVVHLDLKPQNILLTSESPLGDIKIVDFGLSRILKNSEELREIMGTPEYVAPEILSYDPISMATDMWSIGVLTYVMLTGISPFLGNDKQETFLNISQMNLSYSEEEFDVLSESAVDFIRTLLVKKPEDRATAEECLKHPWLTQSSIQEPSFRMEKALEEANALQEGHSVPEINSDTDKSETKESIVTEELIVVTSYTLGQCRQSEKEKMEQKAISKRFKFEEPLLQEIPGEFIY

For the compound `C(=C\c1ccccc1)/C[N+]12CN3CN(CN(C3)C1)C2`, the Activity in assay [1] was in the range of 95.1 to 95.4%; in assay [2], 95.2 to 95.6%; in assay [3], 93.4 to 94.1%; in assay [4] it was 92.8 to 95.6%; in assay [5], 121 to 126%; in assay [6] it was 88.5 to 88.9%. The Activity was 91.5 to 93.2% in [7]; 89.6% in [8]; 90.1 to 93.2% in assay [9]; 94.1 to 96.4% in [10]; 93.5 to 96.7% in assay [11]; 91.7 to 94.8% in assay [12]. For the same compound, the Activity was 93 to 94.8% in [13], 93.5 to 93.8% in [16], 124 to 125% in [18] and 92.3 to 93% in [19]. The inhibition result in [14] was “Active”. Moreover, in assay [15], the inhibition entry was “inactive”. The inhibition entry in assay [17] was “Dose-dependent effect”.
Turning to `ClC/C=C/C[N+]12CN3CN(CN(C3)C1)C2`, the Activity was in the range of 90.9 to 92.8% in assay [4]; 121 to 133% in assay [5]; 91.9 to 94.8% in assay [20]; 88.2 to 88.7% in assay [6]; 95.5 to 95.7% in [7]; 96 to 96.3% in [10]. In addition, the Activity in assay [12] was in the range of 93.7 to 95.3%; in [21] it was 93.1 to 94%; in assay [22], 93.8 to 96.1%; in [13], 94.4 to 96.6%; in [23] it was 85.1 to 89.7%; in [18], 124 to 125%. Moreover, the Activity in assay [19] was 90.2 to 91.3%; in assay [24], 96.4 to 96.7%. For the same compound, in [17], the inhibition entry was “Dose-dependent effect”.
